# Data from patent publication US20160095823A1, “METHODS OF USING PROPOFOL DERIVATIVES FOR ANALGESIA” (priority 2005, published 2016).
# Values joined by “and” are separate entries in the source; they are usually repeats but may differ in a detail not shown here. Equal values may be shown once. Read-outs that look alike come from different tables or passages of the source.
# Key:
# [1] = target: T1, α1 homomeric glycine receptors (Rattus norvegicus, UniProt P07727); assay: Co-activation of the current response to 10 μM glycine, whole-cell patch clamp, transfected HEK 293 cells; format: cell-based; details: for nH (Hill coefficient), coactivating response, α1 homomer: co-applied with 10 μM glycine, Hill fit, ± s.d.
# T1 construct: expressed in transfected cells; host or cells: HEK 293, transient electroporation, cDNA in pCIS2, GFP cDNA co-transfected as marker
# T1 sequence (P07727 29-457): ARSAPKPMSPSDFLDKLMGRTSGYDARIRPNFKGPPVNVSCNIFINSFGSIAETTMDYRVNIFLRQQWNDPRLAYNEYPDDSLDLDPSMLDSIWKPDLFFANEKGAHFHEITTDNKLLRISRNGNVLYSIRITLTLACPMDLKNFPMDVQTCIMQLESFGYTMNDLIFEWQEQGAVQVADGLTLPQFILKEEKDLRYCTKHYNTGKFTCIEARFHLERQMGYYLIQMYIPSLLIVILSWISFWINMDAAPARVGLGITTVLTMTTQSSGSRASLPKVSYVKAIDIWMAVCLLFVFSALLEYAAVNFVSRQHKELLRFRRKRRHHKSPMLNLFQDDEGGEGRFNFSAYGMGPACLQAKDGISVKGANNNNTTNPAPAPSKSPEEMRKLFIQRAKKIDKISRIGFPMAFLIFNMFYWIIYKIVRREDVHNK
# Procedure: (§1) Reduced sensitivity to 1000 μM picrotoxin in α1β heteromeric receptors was used as an assay of the efficacy of β subunit expression. Cells were cultured in Dulbecco's modified Eagle's medium (DMEM, Biochrom, Berlin, Germany), supplemented with 10% fetal calf serum (FCS, Biochrom, Berlin, Germany), 100 U ml^−1 penicillin and 100 μg ml^−1 streptomycin at 37° C. in a 5% CO2/air incubator. For transfection, cells were suspended in a buffer containing 50 mM K2HPO4 and 20 mM K-acetate, pH 7.35. […] To visualize transfected cells, they were co-transfected with cDNA of green fluorescent protein (GFP 10 μg ml^−1). For transfection, we used an electroporation device by EquiBio (Kent, UK). Transfected cells were replated on glass-coverslips and incubated 15-24 h before recording.
# (§2) The phenol derivatives under investigation were prepared as 1 M stock solution in ethanol, light-protected and stored in glass vessels at −20° C. Concentrations were calculated from the amount injected into the glass vials. Drug-containing vials were vigorously vortexed for 60 min.
# (§3) Patch electrodes contained [mM] KCl 140, MgCl2 2, EGTA 11, HEPES 10, glucose 10; the bath solution contained [mM] NaCl 162, KCl 5.3, NaHPO4 0.6, KH2PO4 0.22, HEPES 15, glucose 5.6.
# (§4) Standard whole-cell experiments (Hamill et al., (1981) Pflügers Arch., 391, 85-100.) were performed at −30 mV membrane potential. A tight electrical seal of several GΩ formed between the cell membrane and a patch-clamp electrode allows inward currents due to agonist-induced channel activation to resolve in the pA range. Electrical resistance of the pipettes was around 5 MΩ, corresponding to a total access resistance in the whole-cell configuration of about 10 MΩ. An ultra-fast liquid filament switch technique (Franke et al., (1987) Neurosci. Lett., 77, 199-204) was used for the application of the agonist in pulses of 2 s duration. The agonist and/or the drug under investigation were applied to the cells via a smooth liquid filament achieved with a single outflow (glass tubing 0.15 mm inner diameter) connected to a piezo crystal. The cells were placed at the interface between this filament and the continuously flowing background solution. When a voltage pulse was applied to the piezo, the tube was moved up and down onto or away from the cell under investigation. […] The contents of these reservoirs were mixed at a junction immediately before entering the superfusion chamber.
# (§5) A new cell was used for each drug and each protocol, at least three different experiments were performed for each setting. The amount of the diluent ethanol corresponding to the highest drug concentration used was 34 000 μM.
# (§6) For data acquisition and further analysis the inventors used the Axopatch 200B amplifier in combination with pClamp6 software (Axon Instruments, Union City, Calif., USA). Currents were filtered at 2 kHz. Fitting procedures were performed using a non-linear least-squares Marquardt-Levenberg algorithm. Details are provided in the appropriate figure legends or in the results section.
# (§7) Activated or co-activated currents were normalized to their own maximum response. […] In these cases, the maximum response was the response at the highest concentration of the test compound for which a reliable response could be recorded.
# (§8) Only results obtained with α1β receptors were enrolled in the statistical tests. […] Statistical analysis was performed in order to reveal differences in the maximum effect on the one hand and in the concentrations required to achieve half-maximum effect (EC50) on the other between halogenated and non-halogenated analogues, between compounds with one vs. two methyl groups, or between compounds with ortho- or meso-position of the methyl groups with respect to the phenolic hydroxyl group, respectively. Curve fitting and parameter estimation of the Hill curves were performed using the program “PROC NLMIXED” of SAS Release 8.02.
# [2] = target: T2, α1β heteromeric glycine receptors (Rattus norvegicus, UniProt P07727); assay: as above; format: cell-based; details: for nH (Hill coefficient), coactivating response, α1β heteromer: co-applied with 10 μM glycine, Hill fit, ± s.d.; for half-maximum concentration for glycine receptor co-activation, fold lower than for half-maximum blockade of sodium channels: selectivity versus reported sodium channel block
# T2 construct: expressed in transfected cells; host or cells: HEK 293, transient electroporation, α:β cDNA 1:10, pCIS2 vector
# Procedure: as §1, §2, §3, §4, §5, §6, §7, §8
# glycine receptors = target: T3, glycine receptors (Rattus norvegicus, UniProt P07727); assay: Inhibitory effects (open channel block) on co-application with saturating 1000 μM glycine; format: cell-based; details: co-applied with 1000 μM glycine, 3 experiments
# T3 construct: expressed in transfected cells; host or cells: HEK 293
# T3 sequence (P07727 29-457): T1 sequence (P07727 29-457)
# Procedure: as §4
# A new cell was used for each drug and each protocol, at least three different experiments were performed for each setting. […]
# [3] = tested on: voltage-operated sodium channels; details: cited from earlier work
# [4] = target: T4, α-subunits of glycine receptors from the rat coexpressed with human β subunits (Rattus norvegicus, UniProt P07727); assay: Example 2: co-activation of the current response to 10 μM glycine, whole-cell mode, HEK293 cells; format: cell-based; details: for EC50 values in the presence of glycine (co-activation): Example 2; for concentrations at which the co-activating effect is overridden by inhibitory effects: co-applied with 10 μM glycine; for enhancement of glycine receptor function / EC50 for co-activation, fold lower concentrations than propofol: glycine receptors heterologously expressed in HEK293 cells
# T4 construct: expressed in transfected cells; host or cells: HEK293
# Procedure: (§9) Small cells were studied in the whole-cell mode using an ultra-fast application device.
# The results presented in FIG. 10 were corroborated by repeating the tests carried out to provide the data shown in FIG. 10 to provide the data shown in FIG. 11. […] Note from FIGS. 10 and 11 that the co-activating effect is observed in the concentration range between […]. The co-activating effect is overridden by inhibitory effects at higher concentrations (≧1000 μM). […] Small cells were studied in the whole-cell mode using an ultra-fast application device.
# [5] = target: T4, α-subunits of glycine receptors from the rat coexpressed with human β subunits; assay: Example 2: direct activation in the absence of glycine, whole-cell mode, HEK293 cells; format: cell-based; details: for EC50 values in the absence of the natural transmitter glycine: Example 2; for direct activating effect, fold higher concentrations than the co-activating effect: absence of glycine versus 10 μM glycine
# Excerpt: as §9
# The solid line is a Hill fit to the data with the indicated parameters. Note that the direct activating effect is observed at 1000-fold higher concentrations than the co-activating effect.
# [6] = target: T1, α1 homomeric glycine receptors; assay: Direct activation of Cl- inward currents (agonist applied alone), whole-cell patch clamp, HEK 293; format: cell-based; details: for directly activated current as % of the maximum glycine (1000 μM) response: 3000 μM compound, without glycine, α1, n=3; for EC50: read-out: half-maximum concentration (EC50) for direct activation
# Procedure: as §1, §4, §5, §6, §7
# [7] = target: T2, α1β heteromeric glycine receptors; assay: as above; format: cell-based; details: for directly activated current as % of the maximum glycine (1000 μM) response: 3000 μM compound, without glycine, α1β, n=3; for EC50: read-out: half-maximum concentration (EC50) for direct activation
# Procedure: as §1, §4, §5, §6, §7
# [8] = target: T1, α1 homomeric glycine receptors; assay: Picrotoxin block of the 1000 μM glycine current (check of β subunit expression); format: cell-based; details: picrotoxin 1000 μM co-applied with 1000 μM glycine
# Procedure: as §1
# (§10) A total of 94 cells were included in the study.
# α1β glycine receptors = target: T5, α1β glycine receptors (Rattus norvegicus, UniProt P07727); assay: as above; format: cell-based; details: picrotoxin 1000 μM co-applied with 1000 μM glycine
# T5 construct: expressed in transfected cells; host or cells: HEK 293, transient electroporation, α:β cDNA 1:10, pCIS2 vector
# Procedure: as §1, §10
# [9] = read-out: EC50 (μM), normalised coactivating response, α1 homomer
# [10] = read-out: EC50 (μM), normalised coactivating response, α1β heteromer
# T4 sequence (P48167 23-497 partner, one chain of several): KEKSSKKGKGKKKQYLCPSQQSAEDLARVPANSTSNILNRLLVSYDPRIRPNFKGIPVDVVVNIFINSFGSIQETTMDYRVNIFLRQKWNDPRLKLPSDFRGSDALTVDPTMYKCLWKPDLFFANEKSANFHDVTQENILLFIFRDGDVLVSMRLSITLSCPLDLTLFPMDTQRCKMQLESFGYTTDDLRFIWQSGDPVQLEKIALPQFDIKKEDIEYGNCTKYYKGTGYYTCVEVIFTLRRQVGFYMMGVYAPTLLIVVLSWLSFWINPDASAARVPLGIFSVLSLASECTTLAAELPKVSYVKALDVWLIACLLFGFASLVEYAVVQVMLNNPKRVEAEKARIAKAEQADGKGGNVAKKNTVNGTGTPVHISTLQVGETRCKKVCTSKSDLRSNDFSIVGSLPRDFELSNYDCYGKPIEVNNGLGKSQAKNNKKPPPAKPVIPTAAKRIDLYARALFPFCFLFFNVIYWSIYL
# T2 sequence (P20781 23-496 partner, one chain of several): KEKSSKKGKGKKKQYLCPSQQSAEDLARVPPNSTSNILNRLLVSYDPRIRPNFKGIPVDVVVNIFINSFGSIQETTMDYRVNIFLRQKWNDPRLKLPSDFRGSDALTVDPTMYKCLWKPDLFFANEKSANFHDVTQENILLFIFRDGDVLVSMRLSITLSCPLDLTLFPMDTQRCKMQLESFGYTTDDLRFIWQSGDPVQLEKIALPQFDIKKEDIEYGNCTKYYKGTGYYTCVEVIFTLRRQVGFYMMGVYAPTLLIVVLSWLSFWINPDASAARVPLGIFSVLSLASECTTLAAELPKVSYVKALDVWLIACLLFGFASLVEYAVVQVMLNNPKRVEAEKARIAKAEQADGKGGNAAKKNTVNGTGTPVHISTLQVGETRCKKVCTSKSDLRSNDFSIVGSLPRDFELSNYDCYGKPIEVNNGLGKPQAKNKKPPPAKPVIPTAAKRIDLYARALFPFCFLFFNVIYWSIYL
# T5 sequence (P20781 23-496 partner, one chain of several): as above
compound,measurement,setting,value
Cc1cc(O)ccc1Cl [3 methyl-4-chlorophenol],EC50,[1],8 ± 5 µM
same,"nH (Hill coefficient), coactivating response, α1 homomer",[1],1.1 ± 0.4
same,EC50,[2],4 µM
same,"nH (Hill coefficient), coactivating response, α1β heteromer",[2],1.2 ± 0.3
same,"half-maximum concentration for glycine receptor co-activation, fold lower than for half-maximum blockade of sodium channels",[2],~100 fold
same,concentration producing a reduction in peak current amplitude with response rebound,glycine receptors,> 600 µM
same,IC50,"[3]; resting state, read-out: half-maximum block of sodium channels",400 µM
"CC(C)c1cc(Br)cc(C(C)C)c1O [4-bromopropofol, 4-bromo-2,6 di-isopropylphenol]",EC50 values in the presence of glycine (co-activation),[4],single-digit nanomolar range
same,concentrations at which the co-activating effect is overridden by inhibitory effects,[4],> 1000 µM
same,"enhancement of glycine receptor function / EC50 for co-activation, fold lower concentrations than propofol",[4],1000 fold
same,EC50 values in the absence of the natural transmitter glycine,[5],single-digit micromolar range
same,"direct activating effect, fold higher concentrations than the co-activating effect",[5],1000 fold
Cc1ccccc1O [2 methylphenol],EC50,[1],70 ± 29 µM
same,"nH (Hill coefficient), coactivating response, α1 homomer",[1],0.7 ± 0.1
same,EC50,[2],448 ± 89 µM
same,"nH (Hill coefficient), coactivating response, α1β heteromer",[2],1.2 ± 0.2
"Cc1cc(O)cc(C)c1Cl [3,5 dimethyl-4-chlorophenol]","nH (Hill coefficient), coactivating response, α1 homomer",[1],1.4 ± 2.9
same,EC50,[1]; [9],13 ± 4 µM
same,"nH (Hill coefficient), coactivating response, α1β heteromer",[2],1.3 ± 0.1
same,EC50,[2]; [10],11 ± 2 µM
same,"half-maximum concentration for glycine receptor co-activation, fold lower than for half-maximum blockade of sodium channels",[2],about 10 fold
same,concentration producing a reduction in peak current amplitude with response rebound,glycine receptors,> 300 µM
"Cc1cc(C)cc(O)c1 [3,5 dimethylphenol]","nH (Hill coefficient), coactivating response, α1 homomer",[1],1.7 ± 0.9
same,EC50,[1]; [9],254 ± 139 µM
same,"nH (Hill coefficient), coactivating response, α1β heteromer",[2],1.3 ± 0.2
same,EC50,[2]; [10],308 ± 46 µM
same,directly activated current as % of the maximum glycine (1000 μM) response,[6],30±12%
same,EC50,[6],1470 ± 208 µM
same,directly activated current as % of the maximum glycine (1000 μM) response,[7],38±5%
same,EC50,[7],1470 ± 83 µM
NCC(=O)O [glycine],"current response evoked by 10 μM glycine, % of the response to 1000 μM glycine","[6]; α1 receptors, n=24",46±5%
same,"current response evoked by 10 μM glycine, % of the response to 1000 μM glycine","[7]; α1β receptors, n=34",21±7%
"CC(C)c1cc(I)cc(C(C)C)c1O [4-iodopropofol, 4-iodo-2,6 di-isopropylphenol]",EC50 values in the presence of glycine (co-activation),[4],single-digit nanomolar range
same,concentrations at which the co-activating effect is overridden by inhibitory effects,[4],> 1000 µM
same,"enhancement of glycine receptor function / EC50 for co-activation, fold lower concentrations than propofol",[4],1000 fold
same,EC50 values in the absence of the natural transmitter glycine,[5],single-digit micromolar range
same,"direct activating effect, fold higher concentrations than the co-activating effect",[5],1000 fold
Cc1cccc(O)c1 [3 methylphenol],"nH (Hill coefficient), coactivating response, α1 homomer",[1],0.9 ± 0.3
same,EC50,[1]; [9],59 ± 19 µM
same,"nH (Hill coefficient), coactivating response, α1β heteromer",[2],1.0 ± 0.1
same,EC50,[2]; [10],222 ± 45 µM
"Cc1cccc(C)c1O [2,6 dimethylphenol]","nH (Hill coefficient), coactivating response, α1 homomer",[1],1.5 ± 0.4
same,EC50,[1]; [9],226 ± 104 µM
same,"nH (Hill coefficient), coactivating response, α1β heteromer",[2],1.2 ± 0.1
same,EC50,[2]; [10],370 µM and 373 µM
same,directly activated current as % of the maximum glycine (1000 μM) response,[6],32±6%
same,EC50,[6],1410 ± 101 µM
same,directly activated current as % of the maximum glycine (1000 μM) response,[7],33±10%
same,EC50,[7],1550 ± 164 µM
same,IC50,"[3]; membrane potential close to the physiological resting potential, read-out: half-maximum blockade of voltage-operated neuronal sodium channels",187 µM
picrotoxin,block of receptors by picrotoxin,[8],55±0.05%
same,block of receptors by picrotoxin,α1β glycine receptors,19±0.05%
